From PubChem BioAssay AID1552 (Sanford-Burnham Center for Chemical Genomics, 2009)
Activity calls are given as the source filed them. The rule behind the calls is not given here.

biological target: Ubiquitin-conjugating enzyme E2 N (Homo sapiens) (UniProt P61088); assay: UBE2N binders by NMR, biophysical, purified protein (AID 1552); conditions: NMR binding to purified UBE2N
Sequence (P61088 whole entry, looked up): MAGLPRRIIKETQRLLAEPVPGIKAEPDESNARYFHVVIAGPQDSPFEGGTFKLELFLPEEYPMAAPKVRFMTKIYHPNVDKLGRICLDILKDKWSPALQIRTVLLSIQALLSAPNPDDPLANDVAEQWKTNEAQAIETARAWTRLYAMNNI

Compound | Kd
CCOc1cccc(C(=O)c2ccc(O)c(O)c2O)c1 | > 4 mM (inactive)
Cc1cc(O)c2c(c1)C(=O)c1cccc(O)c1C2=O | > 4 mM (inactive)
O=C(Nc1ccc(N2CCOCC2)cc1)C1CC1 | > 4 mM (inactive)
C[n+]1ccn(C/C(N)=N/O)c1 | > 4 mM (inactive)
Cc1ccccc1OCC(=O)O | > 4 mM (inactive)
Nc1ncnc(NC2CCS(=O)(=O)C2)c1[N+](=O)[O-] (stereo not drawn) | > 4 mM (inactive)
NC(=O)CSc1ccc2nnc(-c3cccs3)n2n1 | > 4 mM (inactive)
COc1ccccc1C(=O)NC1CCN(C)CC1 | > 4 mM (inactive)
Cc1ccc(C(=O)Nc2c[nH]c(=O)[nH]c2=O)cc1 | > 4 mM (inactive)
Cc1cc(-c2ccccc2)nc2cc(C(N)=O)nn12 | > 4 mM (inactive)
O=C(c1ccccc1)N1CCN(c2ccccc2F)CC1 | > 4 mM (inactive)
CCN1CCc2c(sc(N)c2C(N)=O)C1 | > 4 mM (inactive)
O=C1NNC(=O)C2C3c4ccccc4C(c4ccccc43)C12 (stereo not drawn) | > 4 mM (inactive)
CCS(=O)(=O)N1CCN(c2ccccc2F)CC1 | > 4 mM (inactive)
Nc1ccc(CN2CCS(=O)(=O)CC2)cc1 | > 4 mM (inactive)
O=C(O)c1ccc2ccccc2n1 | > 4 mM (inactive)
O=c1[nH]cnc2nc[nH]c12 | > 4 mM (inactive)
O=C1c2ccccc2C(=O)N1/N=C/c1ccc[nH]1 | > 4 mM (inactive)
CCOC(=O)N1CCN(c2ncnc3c2cnn3C)CC1 | > 4 mM (inactive)
COC(=O)/C(=C1\OC(=O)C(c2ccccc2)C1=O)c1ccccc1 (stereo not drawn) | > 4 mM (inactive)

Compound | Kd
COC(=O)C[C@H]1C2(C)CC34OC5(C)O[C@@]6([C@H](OC)C(OC(=O)C(C)C)[C@]7(C)C(/C(=C(/OC)C(C)C)C(=O)O[C@H]7c7ccoc7)[C@@]6(O5)[C@H](OC)[C@@]3(OC)C2OC(C)=O)[C@]14C (stereo partly drawn) | > 4 mM (inactive)
Nc1[nH]c(=S)[nH]c(=O)c1-c1ccccc1 | > 4 mM (inactive)
Nc1cccc(OC(F)(F)F)c1 | > 4 mM (inactive)
O=C(c1ccccc1-c1ccccc1)N1CCOCC1 | > 4 mM (inactive)
Cc1nnc(SCc2ccccc2)[nH]c1=O | > 4 mM (inactive)
COc1cc(/C=C/C(=O)/C=C(O)/C=C/c2ccc(O)c(OC)c2)ccc1O | > 4 mM (inactive)
Nc1cc(=O)[nH]c(=S)n1-c1ccc(F)cc1 | > 4 mM (inactive)
Cc1cc(NC(=O)Cc2cccs2)no1 | > 4 mM (inactive)
CN(C)C(=S)Nc1ccccc1N1CCOCC1 | > 4 mM (inactive)
CC(=O)Nc1cccc(NC(=O)c2cccnc2)c1 | > 4 mM (inactive)
O=c1c2ccccc2oc2ccc(O)cc12 | > 4 mM (inactive)
NCc1ccc(S(N)(=O)=O)cc1 | > 4 mM (inactive)
O=C(O[C@@H]1Cc2c(O)cc(O)cc2O[C@@H]1c1cc(O)c(O)c(O)c1-c1c([C@H]2Oc3cc(O)cc(O)c3C[C@H]2O)cc(O)c(O)c1O)c1cc(O)c(O)c(O)c1 | > 4 mM (inactive)
COc1cc(-c2csc(C)n2)ccc1O | > 4 mM (inactive)
Cc1oc(-c2ccccc2)cc1C(=O)O | > 4 mM (inactive)
NCc1ccc(-c2cccs2)cc1 | > 4 mM (inactive)
Nc1ncnc2c1ncn2C1O[C@H](COP(=O)(O)O)[C@@H](O)[C@H]1O (stereo partly drawn) | > 4 mM (inactive)
C=C1C2CC[C@@]3(C)[C@H](c4ccoc4)OC(=O)C[C@]13O[C@H]1CC(=O)C(C)(C)[C@H](C(OC(C)=O)C(=O)OC)[C@@]21C (stereo partly drawn) | > 4 mM (inactive)
NC(=O)C(=O)NCc1ccc(Cl)cc1 | > 4 mM (inactive)
CSc1ccc(C(=S)N2CCN(C)CC2)cc1 | > 4 mM (inactive)

Compound | Kd
COCC(=O)N1CCCc2ccccc21 | > 4 mM (inactive)
O=C(NCC1CCNCC1)c1ccccn1 | > 4 mM (inactive)
c1ccc(NCc2nc(-c3ccccc3)no2)cc1 | > 4 mM (inactive)
COc1ccccc1-c1noc(-c2ccco2)n1 | > 4 mM (inactive)
O=c1c(O)cccc2cc(O)c(O)c(O)c12 | > 4 mM (inactive)
O=c1cc(-c2ccc(O)cc2)oc2cc(O)cc(O)c12 | > 4 mM (inactive)
COc1ccc(NC(=O)C(N)=O)cc1Cl | > 4 mM (inactive)
Cc1cc(N2C(=O)CCC2=O)n(-c2ccccc2)n1 | > 4 mM (inactive)
NC(Cn1ccc(=O)c(O)c1)C(=O)O (stereo not drawn) | > 4 mM (inactive)
CC1=CC(=O)C2C(C)(C)CCC[C@]2(C)[C@@]1(O)CCc1ccoc1 (stereo partly drawn) | > 4 mM (inactive)
O=C(O)C1CSC(c2cccnc2)N1 (stereo not drawn) | > 4 mM (inactive)
CCC1=Nc2ccccc2-c2nnc(SC)nc2O1 | > 4 mM (inactive)
CSc1n[nH]c(NCc2cccs2)n1 | > 4 mM (inactive)
O=C1CC2OCC=C3CN4CC[C@]56c7ccccc7N1C5[C@H]2[C@H]3CC46 (stereo partly drawn) | > 4 mM (inactive)
CCn1ncc(Cl)c1C(=O)Nc1ccncc1 | > 4 mM (inactive)
Cc1cc(NC(=O)CSc2ccnc(=O)[nH]2)no1 | > 4 mM (inactive)
C/C=C(/C)C(=O)O[C@H]1CC[C@@]2(C)[C@@H]3CC[C@H]4[C@]5(O)C[C@H](O)[C@@]6(O)[C@@H](CN7C[C@@H](C)CC[C@H]7[C@@]6(C)O)[C@]5(O)C[C@@]42OC13O | > 4 mM (inactive)
Cc1cc(C)c(C(N)=O)c(=S)[nH]1 | > 4 mM (inactive)
